Results: patent US9533961B2, “Molecules having certain pesticidal utilities, and intermediates, compositions, and processes related thereto” (priority 2014, dated 2017)
Like-named read-outs stand apart in the source and are kept apart here.

Key:
Assay type in all cases: in vivo
[1] = test system: Green Peach Aphid (Myzus persicae, MYZUPE) ("GPA"); test: Bioassay on Green Peach Aphid (GPA), foliar spray on cabbage seedlings; conditions: 72 h, read-out: GPA % Control (or Mortality) rating
Experimental: Certain molecules disclosed in this document were tested against GPA using procedures described in the following example. In the reporting of the results, the “GPA Rating Table” was used (See Table Section).
Cabbage seedlings grown in 3-inch pots, with 2-3 small (3-5 cm) true leaves, were used as test substrate. The seedlings were infested with 20-50 GPA (wingless adult and nymph stages) one day prior to chemical application. Four pots with individual seedlings were used for each treatment. Test compounds (2 mg) were dissolved in 2 mL of acetone/methanol (1:1) solvent, forming stock solutions of 1000 ppm test compound. The stock solutions were diluted 5× with 0.025% Tween 20 in water to obtain the solution at 200 ppm test compound. A hand-held aspirator-type sprayer was used for spraying a solution to both sides of […] leaves until runoff. Reference plants (solvent check) were sprayed with the diluent only containing 20% by volume of acetone/methanol (1:1) solvent. Treated plants were held in a holding room for three days at approximately 25° C. and ambient relative humidity (RH) prior to grading. Evaluation was conducted by counting the number of live aphids per plant under a microscope. Percent Control was measured by using Abbott's correction formula (W. S. Abbott, “A Method of Computing the Effectiveness of an Insecticide” J. Econ. Entomol. 18 (1925), pp. 265-267) as follows. Corrected % Control=100*(X−Y)/X • where • X=No. of live aphids on solvent check plants and • Y=No. of live aphids on treated plants

[2] = test system: Beet Armyworm (Spodoptera exigua, LAPHEG) ("BAW"); test: Bioassay on Beet Armyworm (BAW), 128-well diet tray assay; conditions: 168 h, read-out: BAW % Control (or Mortality) rating
Experimental: (§1) Certain molecules disclosed in this document were tested against BAW and CEW using procedures described in the following examples. In the reporting of the results, the “BAW & CL Rating Table” was used (See Table Section).
Bioassays on BAW were conducted using a 128-well diet tray assay. one to five second instar BAW larvae were placed in each well (3 mL) of the diet tray that had been previously filled with 1 mL of artificial diet to which 50 μg/cm^2 of the test compound (dissolved in 50 μL of 90:10 acetone-water mixture) had been applied (to each of eight wells) and then allowed to dry. Trays were covered with a clear self-adhesive cover and held at 25° C., 14:10 light-dark for five to seven days. Percent mortality was recorded for the larvae in each well; activity in the eight wells was then averaged. The results are indicated in the table entitled “Table ABC: Biological Results” (See Table Section).

[3] = test system: Cabbage Looper (Trichoplusia ni, TRIPNI) ("CL"); test: Bioassay on Cabbage Looper (CL), 128-well diet tray assay; conditions: 168 h, read-out: CL % Control (or Mortality) rating
Experimental: as §1
Bioassays on CL were conducted using a 128-well diet tray assay. one to five second instar CL larvae were placed in each well (3 mL) of the diet tray that had been previously filled with 1 mL of artificial diet to which 50 μg/cm^2 of the test compound (dissolved in 50 μL of 90:10 acetone-water mixture) had been applied (to each of eight wells) and then allowed to dry. Trays were covered with a clear self-adhesive cover and held at 25° C., 14:10 light-dark for five to seven days. Percent mortality was recorded for the larvae in each well; activity in the eight wells was then averaged. The results are indicated in the table entitled “Table ABC: Biological Results” (See Table Section).

[4] = test system: Yellow Fever Mosquito (Aedes aegypti, AEDSAE) ("YFM"); test: Bioassay on Yellow Fever Mosquito (YFM), 96-well plate larval assay; conditions: about 1 day-old larvae, from 4000 ppm master plate, scored on mortality after 3 days
Experimental: Certain molecules disclosed in this document were tested against YFM using procedures described in the following paragraph. In the reporting of the results, the “YFM Rating Table” was used (See Table Section).
Master plates containing 400 μg of a molecule dissolved in 100 μL of dimethyl sulfoxide (DMSO) (equivalent to a 4000 ppm solution) are used. A master plate of assembled molecules contains 15 μL per well. To this plate, 135 μL of a 90:10 water:acetone mixture is added to each well. A robot (Biomek® NXP Laboratory Automation Workstation) is programmed to dispense 15 μL aspirations from the master plate into an empty 96-well shallow plate (“daughter” plate). There are 6 reps (“daughter” plates) created per master. The created daughter plates are then immediately infested with YFM larvae.
The day before plates are to be treated, mosquito eggs are placed in Millipore water containing liver powder to begin hatching (4 g. into 400 mL). After the daughter plates are created using the robot, they are infested with 220 μL of the liver powder/larval mosquito mixture (about 1 day-old larvae). After plates are infested with mosquito larvae, a non-evaporative lid is used to cover the plate to reduce drying. Plates are held at room temperature for 3 days prior to grading. After 3 days, each well is observed and scored based on mortality.

[5] = 200 ppm foliar spray on cabbage seedlings, three days, Abbott corrected % control
[6] = 50 μg/cm^2 on artificial diet, second instar larvae, five to seven days, 25° C., average of eight wells

Row | Compound | mortality at 200 ppm [1, 5] [%] | mortality at 50 µg/cm2 [2, 6] [%] | mortality at 50 µg/cm2 [3] [%] | mortality at 200 ppm ([1]; foliar) [%] | mortality at 50 µg/cm2 [2] [%] | YFM % Control (or Mortality) rating [4]
1 | Cc1cccc(C)c1Nc1ccccc1C(=O)Nc1ccc(-c2ncn(-c3ccc(OC(F)(F)F)cc3)n2)cc1 [F1, 2-((2,6-dimethylphenyl)amino)-N-(4-(1-(4-(trifluoromethoxy)phenyl)-1H-1,2,4-triazol-3-yl)phenyl)benzamide] | 0 to 80 | 0 | 0 |  |  | 
2 | Cc1cccc(C)c1Nc1ccccc1C(=O)Nc1ccc(-c2ncn(-c3ccc(C(F)(F)F)cc3)n2)cc1 [F2, 2-((2,6-Dimethylphenyl)amino)-N-(4-(1-(4-(trifluoromethyl)phenyl)-1H-1,2,4-triazol-3-yl)phenyl)benzamide] |  |  | 0 | 0 to 80 | 0 | 
3 | O=C(Nc1ccc(-c2ncn(-c3ccc(OC(F)(F)F)cc3)n2)cc1)c1ccccc1Nc1ccccc1 [F7, 2-(phenylamino)-N-(4-(1-(4-(trifluoromethoxy)phenyl)-1H-1,2,4-triazol-3-yl)phenyl)benzamide] | 0 to 80 | 50 to 100 | 50 to 100 |  |  | A (80-100)
4 | COc1cccc(C(=O)Nc2ccc(-c3ncn(-c4ccc(OC(F)(F)C(F)(F)F)cc4)n3)cc2)c1 [F14, 3-Methoxy-N-(4-(1-(4-(perfluoroethoxy)phenyl)-1H-1,2,4-triazol-3-yl)phenyl)benzamide] | 0 | 50 to 100 | 50 to 100 |  |  | A (80-100)
5 | CC(C)c1cccc(C(=O)NCCc2ccc(-c3ncn(-c4ccc(OC(F)(F)F)cc4)n3)cc2)c1 [F41, 3-Isopropyl-N-(4-(1-(4-(trifluoromethoxy)phenyl)-1H-1,2,4-triazol-3-yl)phenethyl)benzamide] | 0 | 0 | 50 to 100 |  |  | D (No activity noticed in this bioassay)
